Results as given in BigSolDB 2.1.

C=C[C@]1(C)C[C@@H](OC(=O)CSC(C)(C)CNC(=O)[C@H](N)C(C)C)[C@]2(C)[C@H](C)CC[C@]3(CCC(=O)[C@H]32)[C@@H](C)[C@@H]1O.Cl
solubility (mole fraction)
Settings	278.15 K	283.15 K	288.15 K	293.15 K	298.15 K	303.15 K	308.15 K	313.15 K
in ethanol	0.0309	0.038	0.0432	0.0506	0.0601	0.0713	0.0837	0.101
in water	0.00162	0.00321	0.00545	0.00853	0.0135	0.0214	0.0344	0.0486
